System: 186277-243-T-J2-PDC complex spheroids, viability
Test: Anticancer human tumor 186277-243-T-J2-PDC patient-derived colon adenocarcinoma cell line growth inhibition [RAS]
Conditions: for IC50: curve of first compound; for viability, T/C: stronger effect = lower value; active = viability on the fitted dose curve at most 10% of control; inactive = the rest
How it was run: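 Tumour cells grown as complex spheroids with HUVEC endothelial cells and mesenchymal stem cells, treated with RAS pathway inhibitor combinations. Each agent spans half-log steps from near clinical Cmax, or 10 microM where Cmax is unknown.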
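Also: spheroids exposed to compounds for 7 days before viability read.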

O=C(c1ccc(F)c(F)c1Nc1ccc(I)cc1F)N1CC(O)([C@@H]2CCCCN2)C1 + C#Cc1c(F)ccc2cc(O)cc(-c3ncc4c(N5CC6CCC(C5)N6)nc(OCC56CCCN5CC(F)C6)nc4c3F)c12
inactive: viability, T/C (second compound 0.0316 µM, first compound 0.00316 µM) 72.4% | viability, T/C (second compound 0.0316 µM, first compound 0.01 µM) 56.3% | viability, T/C (second compound 0.0316 µM, first compound 0.0316 µM) 47.1% | viability, T/C (second compound 0.0316 µM, first compound 0.1 µM) 15.4% | viability, T/C (second compound 0.1 µM, first compound 0.00316 µM) 50% | viability, T/C (second compound 0.1 µM, first compound 0.01 µM) 40.8% | viability, T/C (second compound 0.1 µM, first compound 0.0316 µM) 20% | viability, T/C (second compound 0.316 µM, first compound 0.00316 µM) 18.9% | viability, T/C (second compound 0.316 µM, first compound 0.01 µM) 17.5% | viability, T/C (second compound 0.316 µM, first compound 0.0316 µM) 10.5% | viability, T/C (second compound 1 µM, first compound 0.00316 µM) 12.6% | viability, T/C (second compound 1 µM, first compound 0.01 µM) 9.81% | viability, T/C (second compound 3.16 µM, first compound 0.00316 µM) 9%
20.9 nM: IC50 (second compound 0.0316 µM)
< 3.16 nM: IC50 (second compound 0.316 µM) | IC50 (second compound 1 µM) | IC50 (second compound 3.16 µM) | IC50 (second compound 10 µM)
active: viability, T/C (second compound 0.0316 µM, first compound 0.316 µM) 5.69% | viability, T/C (second compound 0.0316 µM, first compound 1 µM) 6.25% | viability, T/C (second compound 0.1 µM, first compound 0.1 µM) 9.26% | viability, T/C (second compound 0.1 µM, first compound 0.316 µM) 6.29% | viability, T/C (second compound 0.1 µM, first compound 1 µM) 3.94% | viability, T/C (second compound 0.316 µM, first compound 0.1 µM) 9.19% | viability, T/C (second compound 0.316 µM, first compound 0.316 µM) 4.54% | viability, T/C (second compound 0.316 µM, first compound 1 µM) 3.72% | viability, T/C (second compound 1 µM, first compound 0.0316 µM) 8.46% | viability, T/C (second compound 1 µM, first compound 0.1 µM) 6.3% | viability, T/C (second compound 1 µM, first compound 0.316 µM) 4.16% | viability, T/C (second compound 1 µM, first compound 1 µM) 3.53% | viability, T/C (second compound 3.16 µM, first compound 0.01 µM) 9.32% | viability, T/C (second compound 3.16 µM, first compound 0.0316 µM) 7.86% | viability, T/C (second compound 3.16 µM, first compound 0.1 µM) 5.98% | viability, T/C (second compound 3.16 µM, first compound 0.316 µM) 3.91% | viability, T/C (second compound 3.16 µM, first compound 1 µM) 3.32% | viability, T/C (second compound 10 µM, first compound 0.00316 µM) 6.85% | viability, T/C (second compound 10 µM, first compound 0.01 µM) 7.33% | viability, T/C (second compound 10 µM, first compound 0.0316 µM) 5.34% | viability, T/C (second compound 10 µM, first compound 0.1 µM) 3.85% | viability, T/C (second compound 10 µM, first compound 0.316 µM) 2.37% | viability, T/C (second compound 10 µM, first compound 1 µM) 1.61%
3.25 nM: IC50 (second compound 0.1 µM)

CCc1c2c(nc3ccc(O)cc13)-c1cc3c(c(=O)n1C2)COC(=O)[C@]3(O)CC + CCn1c(-c2cccnc2C(C)OC)c2c3cc(ccc31)N1CCOC(CC(NC(=O)C(C(C)C)N(C)C(=O)C3(F)CCN(C(=O)C#CC(C)(C)N(C)C)CC3)C(=O)N3CCCC(N3)C(=O)OCC(C)(C)C2)C1
7.53 nM: IC50 (second compound 0.0949 µM)
inactive: viability, T/C (second compound 0.000949 µM, first compound 0.000949 µM) 157% | viability, T/C (second compound 0.000949 µM, first compound 0.003 µM) 83.7% | viability, T/C (second compound 0.000949 µM, first compound 0.00949 µM) 52.5% | viability, T/C (second compound 0.000949 µM, first compound 0.03 µM) 35.5% | viability, T/C (second compound 0.000949 µM, first compound 0.0949 µM) 17.3% | viability, T/C (second compound 0.000949 µM, first compound 0.3 µM) 12.1% | viability, T/C (second compound 0.003 µM, first compound 0.000949 µM) 142% | viability, T/C (second compound 0.003 µM, first compound 0.003 µM) 91.9% | viability, T/C (second compound 0.003 µM, first compound 0.00949 µM) 55.8% | viability, T/C (second compound 0.003 µM, first compound 0.03 µM) 37.4% | viability, T/C (second compound 0.003 µM, first compound 0.0949 µM) 18.2% | viability, T/C (second compound 0.003 µM, first compound 0.3 µM) 12.9% | viability, T/C (second compound 0.00949 µM, first compound 0.000949 µM) 142% | viability, T/C (second compound 0.00949 µM, first compound 0.003 µM) 85.4% | viability, T/C (second compound 0.00949 µM, first compound 0.00949 µM) 53.8% | viability, T/C (second compound 0.00949 µM, first compound 0.03 µM) 34.4% | viability, T/C (second compound 0.00949 µM, first compound 0.0949 µM) 15.9% | viability, T/C (second compound 0.00949 µM, first compound 0.3 µM) 12.1% | viability, T/C (second compound 0.03 µM, first compound 0.000949 µM) 139% | viability, T/C (second compound 0.03 µM, first compound 0.003 µM) 80.6% | viability, T/C (second compound 0.03 µM, first compound 0.00949 µM) 54.1% | viability, T/C (second compound 0.03 µM, first compound 0.03 µM) 33% | viability, T/C (second compound 0.03 µM, first compound 0.0949 µM) 17% | viability, T/C (second compound 0.03 µM, first compound 0.3 µM) 12.2% | viability, T/C (second compound 0.0949 µM, first compound 0.000949 µM) 102% | viability, T/C (second compound 0.0949 µM, first compound 0.003 µM) 68.6% | viability, T/C (second compound 0.0949 µM, first compound 0.00949 µM) 48% | viability, T/C (second compound 0.0949 µM, first compound 0.03 µM) 25% | viability, T/C (second compound 0.0949 µM, first compound 0.0949 µM) 15.1% | viability, T/C (second compound 0.3 µM, first compound 0.000949 µM) 69.7% | viability, T/C (second compound 0.3 µM, first compound 0.003 µM) 47.5% | viability, T/C (second compound 0.3 µM, first compound 0.00949 µM) 34% | viability, T/C (second compound 0.3 µM, first compound 0.03 µM) 17.7% | viability, T/C (second compound 0.3 µM, first compound 0.0949 µM) 10.5%
10.2 nM: IC50 (second compound 0.03 µM)
9.82 nM: IC50 (second compound 0.000949 µM)
2.85 nM: IC50 (second compound 0.3 µM)
active: viability, T/C (second compound 0.0949 µM, first compound 0.3 µM) 10.3% | viability, T/C (second compound 0.3 µM, first compound 0.3 µM) 8.49%
11.1 nM: IC50 (second compound 0.00949 µM)
13.6 nM: IC50 (second compound 0.003 µM)

Nc1ccn(C2OC(CO)C(O)C2(F)F)c(=O)n1 (stereo unspecified) + CCn1c(-c2cc(N3CCN(C)CC3)cnc2C(C)OC)c2c3cc(ccc31)-c1csc(n1)CC(NC(=O)C1CC1C)C(=O)N1CCCC(N1)C(=O)OCC(C)(C)C2
< 3.16 nM: IC50 (second compound 0.003 µM) | IC50 (second compound 0.00949 µM) | IC50 (second compound 0.03 µM) | IC50 (second compound 0.0949 µM) | IC50 (second compound 0.3 µM)
4.76 nM: IC50 (second compound 0.000949 µM)
inactive: viability, T/C (second compound 0.000949 µM, first compound 0.00316 µM) 73% | viability, T/C (second compound 0.003 µM, first compound 0.00316 µM) 48% | viability, T/C (second compound 0.00949 µM, first compound 0.00316 µM) 12.7%
active: viability, T/C (second compound 0.000949 µM, first compound 0.01 µM) 8.42% | viability, T/C (second compound 0.000949 µM, first compound 0.0316 µM) 6.7% | viability, T/C (second compound 0.000949 µM, first compound 0.1 µM) 6.74% | viability, T/C (second compound 0.000949 µM, first compound 0.316 µM) 5.65% | viability, T/C (second compound 0.000949 µM, first compound 1 µM) 6.26% | viability, T/C (second compound 0.003 µM, first compound 0.01 µM) 6.35% | viability, T/C (second compound 0.003 µM, first compound 0.0316 µM) 5.14% | viability, T/C (second compound 0.003 µM, first compound 0.1 µM) 4.45% | viability, T/C (second compound 0.003 µM, first compound 0.316 µM) 4.85% | viability, T/C (second compound 0.003 µM, first compound 1 µM) 4.99% | viability, T/C (second compound 0.00949 µM, first compound 0.01 µM) 6.13% | viability, T/C (second compound 0.00949 µM, first compound 0.0316 µM) 4.72% | viability, T/C (second compound 0.00949 µM, first compound 0.1 µM) 4.79% | viability, T/C (second compound 0.00949 µM, first compound 0.316 µM) 5.02% | viability, T/C (second compound 0.00949 µM, first compound 1 µM) 4.12% | viability, T/C (second compound 0.03 µM, first compound 0.00316 µM) 7.84% | viability, T/C (second compound 0.03 µM, first compound 0.01 µM) 5.11% | viability, T/C (second compound 0.03 µM, first compound 0.0316 µM) 4.83% | viability, T/C (second compound 0.03 µM, first compound 0.1 µM) 4.21% | viability, T/C (second compound 0.03 µM, first compound 0.316 µM) 4.75% | viability, T/C (second compound 0.03 µM, first compound 1 µM) 3.8% | viability, T/C (second compound 0.0949 µM, first compound 0.00316 µM) 5.28% | viability, T/C (second compound 0.0949 µM, first compound 0.01 µM) 4.76% | viability, T/C (second compound 0.0949 µM, first compound 0.0316 µM) 4.18% | viability, T/C (second compound 0.0949 µM, first compound 0.1 µM) 3.97% | viability, T/C (second compound 0.0949 µM, first compound 0.316 µM) 3.99% | viability, T/C (second compound 0.0949 µM, first compound 1 µM) 3.27% | viability, T/C (second compound 0.3 µM, first compound 0.00316 µM) 5.42% | viability, T/C (second compound 0.3 µM, first compound 0.01 µM) 4.54% | viability, T/C (second compound 0.3 µM, first compound 0.0316 µM) 3.86% | viability, T/C (second compound 0.3 µM, first compound 0.1 µM) 3.78% | viability, T/C (second compound 0.3 µM, first compound 0.316 µM) 3.81% | viability, T/C (second compound 0.3 µM, first compound 1 µM) 3.23%

— PubChem BioAssay AID2060908 (Molecular Pharmacology Branch, DTP, NCI, 2025)
